Laboratory results from patent US20250134857A1, “Fast Acting Joint Health Composition and Use Thereof” (Lonza Greenwood LLC, priority 2022, published 2025).

What was measured:
Format in all cases: cell-based, Human
MMP-13 = MMP-13 expression by real-time PCR in IL-1β-treated SW1353 cells; settings: for MMP-13 Percent Change over Control: 1 h pretreatment, then IL-1β (5 ng/ml) 24 hr
Experimental: (§1) Human SW1353 chondrosarcoma cell line (ATCC, HTB-94) were grown in monolayer at 37° C., in a humidified atmosphere under 5% CO2, with Dulbecco's Modified Eagle Medium (DMEM) supplemented with 10% (v/v) fetal bovine serum (FBS) and 100 U/ml penicillin-streptomycin solution until 80% confluency with 0.1% v/v DMSO as a vehicle control.
(§2) The SW1353 cells were starved for 24 h with serum-free DMEM medium (containing 100 U/ml penicillin-streptomycin), and then pretreated with various concentrations of andrographolide and tamarind seed extract at three concentrations (in triplicate) for one hour, followed by addition of IL-1β (5 ng/ml) in culture media for an additional 24 hr. In addition, sulforaphane was tested as a positive control in the same manner as andrographolide and TSE, which is illustrated in FIG. 1E.
(§3) Real-time PCR was performed with the use of the SYBR Green PCR Master Mix (Applied Biosystems) according to the manufacturer's protocol and amplified on the ABI Prism 7000 sequence detection system. The results are illustrated in FIGS. 1A-1E, and in Table 1.

IL-1A = IL-1A expression by real-time PCR in IL-1β-treated SW1353 cells; settings: for IL-1A Percent Change over Control: 1 h pretreatment, then IL-1β (5 ng/ml) 24 hr
Experimental: as §1, §2, §3

COX-2 = COX-2 expression by real-time PCR in IL-1β-treated SW1353 cells; settings: 1 h pretreatment, then IL-1β (5 ng/ml) 24 hr
Experimental: as §1, §2
Real-time PCR was performed with the use of the SYBR Green PCR Master Mix (Applied Biosystems) according to the manufacturer's protocol and amplified on the ABI Prism 7000 sequence detection system.

SOX-9 = SOX-9 expression by real-time PCR in IL-1β-treated SW1353 cells; settings: 1 h pretreatment, then IL-1β (5 ng/ml) 24 hr
Experimental: as §1, §2, §3

IL-6 = IL-6 expression by real-time PCR in IL-1β-treated SW1353 cells; settings: for IL-6 Percent Change over Control: 1 h pretreatment, then IL-1β (5 ng/ml) 24 hr
Experimental: as §1, §2, §3

[1] = summary of Example 1, SW1353 cells, IL-1β

SMILES: C=C1CC[C@@H]2[C@](C)(CO)[C@H](O)CC[C@@]2(C)[C@@H]1C/C=C1/C(=O)OC[C@H]1O [Andrographolide, andrographolide]
- MMP-13 Percent Change over Control (MMP-13; Dose 2.78): 93.0%
- MMP-13 Percent Change over Control (MMP-13; Dose 8.33): 87.2%
- MMP-13 Percent Change over Control (MMP-13; Dose 25): 108.2%
- MMP-13, result in words (MMP-13; [1]): significant reduction
- IL-1A Percent Change over Control (IL-1A; Dose 2.78): 28.3%
- IL-1A Percent Change over Control (IL-1A; Dose 8.33): 46.1%
- IL-1A Percent Change over Control (IL-1A; Dose 25): 73.1%
- IL-1, result in words (IL-1A; [1]): significant reduction
- COX-2 Percent Change over Control (COX-2; Dose 2.78): 27.1%
- COX-2 Percent Change over Control (COX-2; Dose 8.33): −22.8%
- COX-2 Percent Change over Control (COX-2; Dose 25): 59.8%
- SOX-9 Percent Change over Control (SOX-9; Dose 2.78): 14.2%
- SOX-9 Percent Change over Control (SOX-9; Dose 8.33): 10.8%
- SOX-9 Percent Change over Control (SOX-9; Dose 25): 40.5%
- IL-6 Percent Change over Control (IL-6; Dose 2.78): 46.7%
- IL-6 Percent Change over Control (IL-6; Dose 8.33): 62.8%
- IL-6 Percent Change over Control (IL-6; Dose 25): 101.3%
- IL-6, result in words (IL-6; [1]): significant reduction
